Literature values in US20090029952A1, “UNIQUE COMBINATION OF […] ACID, ETHYLENEDIAMINE DIHYDROIODIDE (EDDI), AND BUFFER FOR USE IN ANIMAL DRINKING WATER” (priority 2007, published 2009).

SMILES: CC(=O)Oc1ccccc1C(=O)O [aspirin, acetylsalicylic acid]
- maximum solubility of aspirin alone in water (alone in water, or in the presence of sodium acetate or sodium diacetate): 0.1 % by weight
- solubility in water (water, from chemical handbooks): 0.1%
